Assay results published in ChEMBL document CHEMBL3044789, “Comparing weed and crop seedling response to pre-emergence pendimethalin application in Corchorus olitorius and Abelmoschus esculentus” (Crop Prot, 2006).

Columns and labels:
Euphorbia heterophylla [1] = assay: Herbicidal activity against Euphorbia heterophylla in Abelmoschus esculentus plots assessed as weed cover at 1.32 kg a.i/ha after 4 weeks (reference value: 22.6 +/- 0.49 %); type: functional
Synedrella nodiflora [2] = assay: Herbicidal activity against Synedrella nodiflora in Abelmoschus esculentus plots assessed as weed cover at 0.66 kg a.i/ha after 4 weeks (reference value: 22.6 +/- 0.49 %); type: functional
Calopogonium mucunoides [3] = assay: Herbicidal activity against Calopogonium mucunoides in Abelmoschus esculentus plots assessed as weed cover at 0.99 kg a.i/ha after 2 weeks (reference value: 63.5 +/- 0.29 %); type: functional
Calopogonium mucunoides [4] = assay: Herbicidal activity against Calopogonium mucunoides in Abelmoschus esculentus plots assessed as weed cover at 0.66 kg a.i/ha after 2 weeks (reference value: 63.5 +/- 0.29 %); type: functional
Euphorbia heterophylla [5] = assay: Herbicidal activity against Euphorbia heterophylla in Abelmoschus esculentus plots assessed as weed cover at 0.66 kg a.i/ha after 2 weeks (reference value: 63.5 +/- 0.29 %); type: functional
Synedrella nodiflora [6] = assay: Herbicidal activity against Synedrella nodiflora in Abelmoschus esculentus plots assessed as minor weed growth at 1.32 kg a.i/ha after 2 weeks; type: functional
Euphorbia heterophylla [7] = assay: Herbicidal activity against Euphorbia heterophylla in Corchorus olitorius plots assessed as major weed growth at 0.99 kg a.i/ha after 2 weeks; type: functional
Euphorbia heterophylla [8] = assay: Herbicidal activity against Euphorbia heterophylla in Abelmoschus esculentus plots assessed as weed cover at 0.66 kg a.i/ha after 7 weeks (reference value: 14.7 +/- 0.46 %); type: functional
Euphorbia heterophylla [9] = assay: Herbicidal activity against Euphorbia heterophylla in Abelmoschus esculentus plots assessed as weed cover at 0.33 kg a.i/ha after 2 weeks (reference value: 63.5 +/- 0.29 %); type: functional
Synedrella nodiflora [10] = assay: Herbicidal activity against Synedrella nodiflora in Abelmoschus esculentus plots assessed as weed cover at 0.33 kg a.i/ha after 2 weeks (reference value: 63.5 +/- 0.29 %); type: functional
Corchorus olitorius [11] = assay: Phytotoxicity in Corchorus olitorius assessed as crop seedling injury at 0.99 kg a.i/ha after 2 weeks relative to untreated control; type: organism-based; conditions: in vivo, 336 h
Corchorus olitorius [12] = assay: Phytotoxicity in Corchorus olitorius assessed as crop seedling injury at 0.33 kg a.i/ha after 2 weeks relative to untreated control; type: organism-based; conditions: in vivo, 336 h
Talinum fruticosum = assay: Herbicidal activity against Talinum fruticosum in Corchorus olitorius plots assessed as weed cover at 0.99 kg a.i/ha after 7 weeks (reference value: 1.7 +/- 0.56 %); type: functional
Corchorus olitorius [13] = assay: Phytotoxicity in Corchorus olitorius assessed as root length at 0.99 kg a.i/ha applied as solution after 7 weeks (reference value: 14.3 +/- 1.06 mm); type: organism-based; conditions: in vivo, other, 1176 h
Corchorus olitorius [14] = assay: Phytotoxicity in Corchorus olitorius assessed as shoot length at 0.99 kg a.i/ha applied as solution after 7 weeks (reference value: 22.9 +/- 0.8 mm); type: organism-based; conditions: in vivo, other, 1176 h
Corchorus olitorius [15] = assay: Phytotoxicity in Corchorus olitorius assessed as seed germination at 1.32 kg a.i/ha applied as solution after 7 weeks relative to untreated control; type: organism-based; conditions: in vivo, other, 1176 h
Corchorus olitorius [16] = assay: Phytotoxicity in Corchorus olitorius assessed as root length at 0.66 kg a.i/ha treated to soil after 7 weeks (reference value: 16.9 +/- 0.09 mm); type: organism-based; conditions: in vivo, other, 1176 h
Euphorbia heterophylla [17] = assay: Herbicidal activity against Euphorbia heterophylla in Corchorus olitorius plots assessed as weed recovery at 1.32 kg a.i/ha after 2 weeks (reference value: 78.3 +/- 0.74 %); type: functional
Synedrella nodiflora [18] = assay: Herbicidal activity against Synedrella nodiflora in Corchorus olitorius plots assessed as weed cover at 0.33 kg a.i/ha after 7 weeks (reference value: 1.7 +/- 0.56 %); type: functional
Synedrella nodiflora [19] = assay: Herbicidal activity against Synedrella nodiflora in Corchorus olitorius plots assessed as weed cover at 0.99 kg a.i/ha after 2 weeks (reference value: 81.7 +/- 0.43 %); type: functional
Asteraceae = assay: Herbicidal activity against Aspilia africana in Corchorus olitorius plots assessed as weed cover at 0.66 kg a.i/ha after 2 weeks (reference value: 81.7 +/- 0.43 %); type: functional
Ageratum conyzoides [20] = assay: Herbicidal activity against Ageratum conyzoides in Corchorus olitorius plots assessed as weed cover at 0.33 kg a.i/ha after 2 weeks (reference value: 81.7 +/- 0.43 %); type: functional
Mimosa pudica = assay: Herbicidal activity against Mimosa pudica in Abelmoschus esculentus plots assessed as minor weed growth at 0.33 kg a.i/ha after 2 weeks; type: functional
Commelina diffusa = assay: Herbicidal activity against Commelina diffusa in Abelmoschus esculentus plots assessed as minor weed growth at 0.66 kg a.i/ha after 2 weeks; type: functional
Chromolaena odorata = assay: Herbicidal activity against Chromolaena odorata in Corchorus olitorius plots assessed as weed recovery at 0.33 kg a.i/ha after 2 weeks (reference value: 78.3 +/- 0.74 %); type: functional
Ageratum conyzoides [21] = assay: Herbicidal activity against Ageratum conyzoides in Corchorus olitorius plots assessed as weed cover at 1.32 kg a.i/ha after 7 weeks (reference value: 1.7 +/- 0.56 %); type: functional
Abelmoschus esculentus [22] = assay: Phytotoxicity in Abelmoschus esculentus assessed as shoot length at 0.66 kg a.i/ha applied as solution after 7 weeks (reference value: 28.7 +/- 0.34 mm); type: organism-based; conditions: in vivo, other, 1176 h
Corchorus olitorius [23] = assay: Phytotoxicity in Corchorus olitorius assessed as shoot length at 0.33 kg a.i/ha treated to soil after 7 weeks (reference value: 23.7 +/- 0.10 mm); type: organism-based; conditions: in vivo, other, 1176 h
Abelmoschus esculentus [24] = assay: Phytotoxicity in Abelmoschus esculentus assessed as crop seedling injury at 1.32 kg a.i/ha after 2 weeks relative to untreated control; type: organism-based; conditions: in vivo, 336 h
Abelmoschus esculentus [25] = assay: Phytotoxicity in Abelmoschus esculentus assessed as crop seedling injury at 0.33 kg a.i/ha after 2 weeks relative to untreated control; type: organism-based; conditions: in vivo, 336 h
Abelmoschus esculentus [26] = assay: Phytotoxicity in Abelmoschus esculentus assessed as crop seedling injury at 0.66 kg a.i/ha after 2 weeks relative to untreated control; type: organism-based; conditions: in vivo, 336 h
Calopogonium mucunoides [27] = assay: Herbicidal activity against Calopogonium mucunoides in Abelmoschus esculentus plots assessed as weed recovery at 1.32 kg a.i/ha after 2 weeks (reference value: 60.1 +/- 0.46 %); type: functional
Synedrella nodiflora [28] = assay: Herbicidal activity against Synedrella nodiflora in Abelmoschus esculentus plots assessed as weed recovery at 1.32 kg a.i/ha after 2 weeks (reference value: 60.1 +/- 0.46 %); type: functional
Calopogonium mucunoides [29] = assay: Herbicidal activity against Calopogonium mucunoides in Abelmoschus esculentus plots assessed as weed recovery at 0.99 kg a.i/ha after 2 weeks (reference value: 60.1 +/- 0.46 %); type: functional
Synedrella nodiflora [30] = assay: Herbicidal activity against Synedrella nodiflora in Abelmoschus esculentus plots assessed as weed recovery at 0.66 kg a.i/ha after 2 weeks (reference value: 60.1 +/- 0.46 %); type: functional
[31] = test system: Rottboellia cochinchinensis; assay: Herbicidal activity against Rottboellia cochinchinensis in Corchorus olitorius plots assessed as weed cover at 0.33 kg a.i/ha after 4 weeks (reference value: 20.1+/- 0.57 %); type: functional
Synedrella nodiflora [32] = assay: Herbicidal activity against Synedrella nodiflora in Corchorus olitorius plots assessed as weed cover at 1.32 kg a.i/ha after 2 weeks (reference value: 81.7 +/- 0.43 %); type: functional

Work on `CCC(CC)Nc1c([N+](=O)[O-])cc(C)c(C)c1[N+](=O)[O-]` [PENDIMETHALIN] yielded an Activity (Euphorbia heterophylla [1]) of 36.2%, an Activity (Synedrella nodiflora [2]) of 47.9% and an Activity (Calopogonium mucunoides [3]) of 47.9%. The Activity (Calopogonium mucunoides [4]) was 50.8%, the Activity (Euphorbia heterophylla [5]) was 50.8% and the Activity (Synedrella nodiflora [6]) was 1 /m2. The Activity (Euphorbia heterophylla [7]) was 31 /m2, the Activity (Euphorbia heterophylla [8]) was 90% and the Activity (Euphorbia heterophylla [9]) was 56.8%. It also gave an Activity (Synedrella nodiflora [10]) of 56.8%, an Activity (Corchorus olitorius [11]) of 60% and an Activity (Corchorus olitorius [12]) of 41.7%. The Activity (Talinum fruticosum) was 95%, the Activity (Corchorus olitorius [13]) was 2.5 mm and the Activity (Corchorus olitorius [14]) was 5.7 mm. The Activity (Corchorus olitorius [15]) was 68.3%, the Activity (Corchorus olitorius [16]) was 13.7 mm and the Activity (Euphorbia heterophylla [17]) was 13.3%. The Activity (Synedrella nodiflora [18]) was 100%, the Activity (Synedrella nodiflora [19]) was 51.7% and the Activity (Asteraceae) was 51.7%. The Activity (Ageratum conyzoides [20]) was 63.3%, the Activity (Mimosa pudica) was 1 /m2 and the Activity (Commelina diffusa) was 1 /m2. It also gave an Activity (Chromolaena odorata) of 31.7%, an Activity (Ageratum conyzoides [21]) of 95% and an Activity (Abelmoschus esculentus [22]) of 14.7 mm. It also gave an Activity (Corchorus olitorius [23]) of 18.8 mm, an Activity (Abelmoschus esculentus [24]) of 53.8% and an Activity (Abelmoschus esculentus [25]) of 39.9%. It also gave an Activity (Abelmoschus esculentus [26]) of 42.1%, an Activity (Calopogonium mucunoides [27]) of 33.2% and an Activity (Synedrella nodiflora [28]) of 33.2%. For the same molecule, the Activity (Calopogonium mucunoides [29]) was 36.2%, the Activity (Synedrella nodiflora [30]) was 47.9% and the Activity [31] was 73.3%. For the same molecule, the Activity (Synedrella nodiflora [32]) was 41.7%.
